Reference: patent publication US9695155B2, “Herbicidal substituted pyrimidinyloxy benzene compounds” (E. I. DU PONT DE NEMOURS AND COMPANY, priority 2013, dated 2017)

Legend:
[1] = system: Italian ryegrass; experiment: Test A preemergence; type: in vivo, Lolium multiflorum; details: for Plant response rating, Ryegrass, Italian: 0 to 100 scale where 0 is no effect and 100 is complete control
Source text: (§1) Seeds of plant species selected from barnyardgrass (Echinochloa crus-galli), kochia (Kochia scoparia), ragweed (common ragweed, Ambrosia elatior), Italian ryegrass (Lolium multiflorum), large (Lg) crabgrass (Digitaria sanguinalis), giant foxtail (Setaria faberii), morningglory (Ipomoea spp.), pigweed (Amaranthus retroflexus), velvetleaf (Abutilon theophrasti), wheat (Triticum aestivum), and corn (Zea mays) were planted into a blend of loam soil and sand and treated preemergence with a directed soil spray using test chemicals formulated in a non-phytotoxic solvent mixture which included a surfactant.
(§2) At the same time, plants selected from these crop and weed species and also blackgrass (Alopecurus myosuroides), and galium (catchweed bedstraw, Galium aparine) were planted in pots containing the same blend of loam soil and sand and treated with postemergence applications of test chemicals formulated in the same manner. Plants ranged in height from 2 to 10 cm and were in the one- to two-leaf stage for the postemergence treatment. Treated plants and untreated controls were maintained in a greenhouse for approximately 10 days, after which time all treated plants were compared to untreated controls and visually evaluated for injury. Plant response ratings, summarized in Table A, are based on a 0 to 100 scale where 0 is no effect and 100 is complete control. A dash (-) response means no test result.

[2] = system: galium; experiment: Test A postemergence; type: in vivo, Galium aparine; details: for Plant response rating, Galium: 0 to 100 scale, 0 no effect, 100 complete control
Summary of the method: (§3)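 Visual injury scored 0–100 (100 = complete control) against untreated controls about 10 days after treatment in a greenhouse. Test chemicals, formulated with surfactant in non-phytotoxic solvent, were sprayed on soil preemergence or on 2-10 cm, one- to two-leaf plants postemergence.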

[3] = system: barnyardgrass; experiment: Test A postemergence; type: in vivo, Echinochloa crus-galli; details: for Plant response rating, Barnyardgrass: 0 to 100 scale, 0 no effect, 100 complete control
Summary of the method: as §3

[4] = system: sedge, umbrella; experiment: Test B flooded paddy test; type: in vivo, Cyperus difformis; details: Flood, 250 g ai/ha; 0 to 100 scale where 0 is no effect and 100 is complete control
Summary of the method: (§4)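 Scores from 0 (no effect) to 100 (complete control) are visual comparisons with controls, taken 13 to 15 days after compound was applied into floodwater 3 cm deep around 2-leaf plants.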

[5] = system: wheat; experiment: Test A postemergence; type: in vivo, Triticum aestivum; details: for Plant response rating, Wheat: 0 to 100 scale, 0 no effect, 100 complete control
Summary of the method: as §3

[6] = system: Italian ryegrass; experiment: Test A postemergence; type: in vivo, Lolium multiflorum; details: for Plant response rating, Ryegrass, Italian: 0 to 100 scale, 0 no effect, 100 complete control
Source text: as §1, §2

[7] = system: rice; experiment: Test B flooded paddy test; type: in vivo, Oryza sativa; details: Flood, 250 g ai/ha; 0 to 100 scale where 0 is no effect and 100 is complete control
Summary of the method: as §4

[8] = system: pigweed; experiment: Test A postemergence; type: in vivo, Amaranthus retroflexus; details: for Plant response rating, Pigweed: 0 to 100 scale, 0 no effect, 100 complete control
Summary of the method: as §3

[9] = system: ragweed; experiment: Test A preemergence; type: in vivo, Ambrosia elatior; details: for Plant response rating, Ragweed: 0 to 100 scale where 0 is no effect and 100 is complete control
Source text: as §1, §2

[10] = system: giant foxtail; experiment: Test A preemergence; type: in vivo, Setaria faberii; details: for Plant response rating, Foxtail, Giant: 0 to 100 scale where 0 is no effect and 100 is complete control
Summary of the method: as §3

[11] = system: Heteranthera limosa; experiment: Test B flooded paddy test; type: in vivo; details: Flood, 250 g ai/ha; 0 to 100 scale where 0 is no effect and 100 is complete control
Summary of the method: as §4

[12] = system: barnyardgrass; experiment: Test A preemergence; type: in vivo, Echinochloa crus-galli; details: for Plant response rating, Barnyardgrass: 0 to 100 scale where 0 is no effect and 100 is complete control
Summary of the method: as §3

[13] = system: giant foxtail; experiment: Test A postemergence; type: in vivo, Setaria faberii; details: for Plant response rating, Foxtail, Giant: 0 to 100 scale, 0 no effect, 100 complete control
Summary of the method: as §3

[14] = system: pigweed; experiment: Test A preemergence; type: in vivo, Amaranthus retroflexus; details: for Plant response rating, Pigweed: 0 to 100 scale where 0 is no effect and 100 is complete control
Summary of the method: as §3

[15] = system: kochia; experiment: Test A postemergence; type: in vivo, Kochia scoparia; details: for Plant response rating, Kochia: 0 to 100 scale, 0 no effect, 100 complete control
Source text: as §1, §2

[16] = system: kochia; experiment: Test A preemergence; type: in vivo, Kochia scoparia; details: for Plant response rating, Kochia: 0 to 100 scale where 0 is no effect and 100 is complete control
Source text: as §1, §2

[17] = system: barnyardgrass; experiment: Test B flooded paddy test; type: in vivo, Echinochloa crus-galli; details: Flood, 250 g ai/ha; 0 to 100 scale where 0 is no effect and 100 is complete control
Summary of the method: as §4

[18] = system: ragweed; experiment: Test A postemergence; type: in vivo, Ambrosia elatior; details: for Plant response rating, Ragweed: 0 to 100 scale, 0 no effect, 100 complete control
Source text: as §1, §2

[19] = system: blackgrass; experiment: Test A postemergence; type: in vivo, Alopecurus myosuroides; details: for Plant response rating, Blackgrass: 0 to 100 scale, 0 no effect, 100 complete control
Source text: as §1, §2

[20] = system: corn; experiment: Test A postemergence; type: in vivo, Zea mays; details: for Plant response rating, Corn: 0 to 100 scale, 0 no effect, 100 complete control
Summary of the method: as §3

[21] = 31 g ai/ha, visual, approximately 10 days
[22] = 125 g ai/ha, 0 to 100 scale where 0 is no effect and 100 is complete control
[23] = 1000 g ai/ha, 0 to 100 scale, 0 no effect, 100 complete control, approx. 10 days

FC(F)c1cccc(Oc2ncc(Cl)cn2)c1-n1cncc1Br [Compound 259]
Plant response rating, Ryegrass, Italian [1, 21]: 0
Ryegrass, Italian plant response rating (0 to 100 scale) ([1]; 125 g ai/ha): 0
Plant response rating, Galium ([2]; 31 g ai/ha): 70
Plant response rating, Galium ([2]; 125 g ai/ha): 80
Plant response rating, Barnyardgrass ([3]; 31 g ai/ha): 0
Plant response rating, Barnyardgrass ([3]; 125 g ai/ha): 30
Plant response rating, Sedge, Umbrella [4]: 75
Plant response rating, Wheat ([5]; 31 g ai/ha): 0
Plant response rating, Wheat ([5]; 125 g ai/ha): 0
Plant response rating, Ryegrass, Italian ([6]; 31 g ai/ha): 0
Plant response rating, Ryegrass, Italian ([6]; 125 g ai/ha): 10
Plant response rating, Rice [7]: 0
Plant response rating, Pigweed ([8]; 31 g ai/ha): 70
Plant response rating, Pigweed ([8]; 125 g ai/ha): 90
Plant response rating, Ragweed [9, 21]: 10
Ragweed plant response rating (0 to 100 scale) ([9]; 125 g ai/ha): 70
Plant response rating, Foxtail, Giant [10, 21]: 30
Foxtail, Giant plant response rating (0 to 100 scale) ([10]; 125 g ai/ha): 100
Plant response rating, Ducksalad [11]: 70
Plant response rating, Barnyardgrass [12, 21]: 10
Barnyardgrass plant response rating (0 to 100 scale, 0 is no effect, 100 is complete control) ([12]; 125 g ai/ha): 70
Plant response rating, Foxtail, Giant ([13]; 31 g ai/ha): 10
Plant response rating, Foxtail, Giant ([13]; 125 g ai/ha): 40
Plant response rating, Pigweed [14, 21]: 70
Pigweed plant response rating (0 to 100 scale) ([14]; 125 g ai/ha): 100
Plant response rating, Kochia ([15]; 31 g ai/ha): 60
Plant response rating, Kochia ([15]; 125 g ai/ha): 80
Plant response rating, Kochia [16, 21]: 20
Kochia plant response rating (0 to 100 scale) ([16]; 125 g ai/ha): 80
Plant response rating, Barnyardgrass [17]: 0
Plant response rating, Ragweed ([18]; 31 g ai/ha): 50
Plant response rating, Ragweed ([18]; 125 g ai/ha): 70
Plant response rating, Blackgrass ([19]; 31 g ai/ha): 20
Plant response rating, Blackgrass ([19]; 125 g ai/ha): 50
Plant response rating, Corn ([20]; 31 g ai/ha): 0
Plant response rating, Corn ([20]; 125 g ai/ha): 10

COc1cnn(-c2c(F)cccc2Oc2ncc(Cl)cn2)c1 [Compound 121]
Ryegrass, Italian plant response rating (0 to 100 scale) ([1]; 31 g ai/ha): 0
Plant response rating, Ryegrass, Italian ([1]; 125 g ai/ha): 0
Plant response rating, Galium ([2]; 31 g ai/ha): 10
Galium plant response rating [2, 22]: 30
Plant response rating, Barnyardgrass ([3]; 31 g ai/ha): 0
Barnyardgrass plant response rating [3, 22]: 20
Plant response rating, Sedge, Umbrella [4]: 0
Plant response rating, Wheat ([5]; 31 g ai/ha): 0
Wheat plant response rating [5, 22]: 0
Plant response rating, Ryegrass, Italian ([6]; 31 g ai/ha): 0
Ryegrass, Italian plant response rating [6, 22]: 0
Plant response rating, Rice [7]: 0
Plant response rating, Pigweed ([8]; 31 g ai/ha): 10
Pigweed plant response rating [8, 22]: 40
Ragweed plant response rating (0 to 100 scale) ([9]; 31 g ai/ha): 0
Plant response rating, Ragweed ([9]; 125 g ai/ha): 10
Foxtail, Giant plant response rating (0 to 100 scale) ([10]; 31 g ai/ha): 10
Plant response rating, Foxtail, Giant ([10]; 125 g ai/ha): 50
Plant response rating, Ducksalad [11]: 45
Barnyardgrass plant response rating (0 to 100 scale) ([12]; 31 g ai/ha): 0
Plant response rating, Barnyardgrass ([12]; 125 g ai/ha): 30
Plant response rating, Foxtail, Giant ([13]; 31 g ai/ha): 0
Foxtail, Giant plant response rating [13, 22]: 30
Pigweed plant response rating (0 to 100 scale) ([14]; 31 g ai/ha): 60
Plant response rating, Pigweed ([14]; 125 g ai/ha): 90
Plant response rating, Kochia ([15]; 31 g ai/ha): 20
Kochia plant response rating [15, 22]: 40
Kochia plant response rating (0 to 100 scale) ([16]; 31 g ai/ha): 0
Plant response rating, Kochia ([16]; 125 g ai/ha): 60
Plant response rating, Barnyardgrass [17]: 20
Plant response rating, Ragweed ([18]; 31 g ai/ha): 10
Ragweed plant response rating [18, 22]: 40
Plant response rating, Blackgrass ([19]; 31 g ai/ha): 10
Blackgrass plant response rating [19, 22]: 30
Plant response rating, Corn ([20]; 31 g ai/ha): 0
Corn plant response rating [20, 22]: 10

CCOC(=O)c1cn(-c2ccccc2Oc2ncc(Cl)cn2)nn1 [Compound 302]
Ryegrass, Italian plant response rating [1, 23]: 0
Plant response rating, Galium ([2]; 1000 g ai/ha): 0
Plant response rating, Barnyardgrass ([3]; 1000 g ai/ha): 0
Plant response rating, Wheat ([5]; 1000 g ai/ha): 0
Plant response rating, Ryegrass, Italian ([6]; 1000 g ai/ha): 0
Plant response rating, Pigweed ([8]; 1000 g ai/ha): 0
Ragweed plant response rating [9, 23]: 0
Foxtail, Giant plant response rating [10, 23]: 0
Barnyardgrass plant response rating [12, 23]: 0
Plant response rating, Foxtail, Giant ([13]; 1000 g ai/ha): 0
Pigweed plant response rating [14, 23]: 0
Plant response rating, Kochia ([15]; 1000 g ai/ha): 0
Kochia plant response rating [16, 23]: 0
Plant response rating, Ragweed ([18]; 1000 g ai/ha): 0
Plant response rating, Blackgrass ([19]; 1000 g ai/ha): 0
Plant response rating, Corn ([20]; 1000 g ai/ha): 0
